Results as given in patent US20240325398A1, “COMBINATION THERAPIES” (Infinity Pharmaceuticals, Inc., priority 2014, published 2024).
Structures can show the parent of a compound that is named as a salt.

Assays:
U-2932 = experiment: Combination study, ATPLite 72 h, dose matrix (Synergy Score, CI50); details: combination with Compound 1, 72 h
KARPAS-299 = experiment: as above; details: combination with Compound 1
Farage = experiment: as above; details: combination with Compound 1; Farage; 72 h
NCI-H929 = experiment: as above; details: combination with Compound 1
WSU-NHL = experiment: as above; details: combination with Compound 1, 72 h
RPMI-8226 = experiment: as above; details: combination with Compound 1
HH = experiment: as above; format: cell-based; details: combination with Compound 1
Protocol: The method is described as follows.
Additive effect is CI=1.0. […] Antagonistic effect is CI>1.0.
The Synergy Score is calculated as: […]

OCI-Ly7 = experiment: as above; details: combination with Compound 1, 72 h
[1] = as above; details: combination with Compound 1; OPM-2
OMP-2 = experiment: as above; details: combination with Compound 1; OPM-2
OCI-Ly3 = experiment: as above; details: combination with Compound 1; OCI-Ly3; 72 h
DOHH-2 = experiment: as above; details: combination with Compound 1, 72 h
Protocol: Cells are thawed from a liquid nitrogen preserved state. Once cells have been expanded and divide at their expected doubling times, screening begins. Cells are seeded in growth media in either black 1536-well or 384-well tissue culture treated plates. Cells are then equilibrated in assay plates via centrifugation and placed in incubators attached to the Dosing Modules at 37° C. for 24 hours before treatment. […] These Tzero (To) plates are read using ultra-sensitive luminescence on Envision plate readers (Perkin Elmer). Treated assay plates are incubated with compound for 72 hours. After 72 hours, plates are developed for endpoint analysis using ATPLite. All data points are collected via automated processes, quality controlled and analyzed using Zalicus software.
The measure of effect in the experiment can be the inhibition of cellular response relative to the untreated level (vehicle alone). […] The inhibition ranges from 0% at the untreated level to 100% when T=0. Inhibition levels are negative for agents that actually increase levels.
Growth Inhibition (GI) is used as a measure of cell viability. […] A GI reading of 100% represents complete growth inhibition—T72 compound-treated and T0 vehicle signals are matched. […] A GI reading of 200% represents complete death of all cells in the culture well. Compounds reaching an activity plateau of GI 200% are considered cytotoxic. GI is calculated by applying the following test and equation:
Combination analysis data were collected in a 6×6 dose matrix. Synergy is calculated by comparing a combination's response to those of its single compound, against the drug-with-itself dose-additive reference model. Deviations from dose additivity may be assessed visually on an isobologram or numerically with a Combination Index (CI). […] Additive effect is CI=1.0. […] Antagonistic effect is CI>1.0.
To measure combination effects in excess of Loewe additivity, a scalar measure to characterize the strength of synergistic interaction termed the Synergy Score is devised. The Synergy Score is calculated as:
The fractional inhibition for each component agent and combination point in the matrix is calculated relative to the median of all vehicle-treated control wells. The Synergy Score equation integrates the experimentally-observed activity volume at each point in the matrix in excess of a model surface numerically derived from the activity of the component agents using the Loewe model for additivity. Additional terms in the Synergy Score equation (above) are used to normalize for various dilution factors used for individual agents and to allow for comparison of synergy scores across an entire experiment. The inclusion of positive inhibition gating or an Idata multiplier removes noise near the zero effect level, and biases results for synergistic interactions at that occur at high activity levels.
Loewe Volume (Loewe Vol) is used to assess the overall magnitude of the combination interaction in excess of the Loewe additivity model. Loewe Volume is particularly useful when distinguishing synergistic increases in a phenotypic activity (positive Loewe Volume) versus synergistic antagonisms (negative Loewe Volume). […] This model defines additivity as a non-synergistic combination interaction where the combination dose matrix surface should be indistinguishable from either drug crossed with itself. The calculation for Loewe additivity is:

Jeko-1 = experiment: as above; details: combination with Compound 1
TMD8 = experiment: as above; details: combination with Compound 1; TMD8; 72 h
HBL-1 = experiment: as above; details: combination with Compound 1, 72 h
SU-DHL-10-epst = experiment: as above; details: combination with Compound 1, 72 h
RL = experiment: as above; details: combination with Compound 1, 72 h
Mino = experiment: as above; details: combination with Compound 1
SU-DHL-4-epst = experiment: as above; details: combination with Compound 1, 72 h
GRANTA-519 = experiment: as above; details: combination with Compound 1
KARPAS-422 = experiment: as above; details: combination with Compound 1, 72 h

COc1cccc2c1C(=O)c1c(O)c3c(c(O)c1C2=O)C[C@@](O)(C(=O)CO)C[C@@H]3O[C@H]1C[C@H](N)[C@H](O)[C@H](C)O1 [Doxorubicin HCl]
CI50 growth inhibition (U-2932): U (U=0.7 to <1)
CI50 inhibition (U-2932): W (W=≥1)
Synergy Score growth inhibition (U-2932): A2 (A2=1 to <3)
Synergy Score inhibition (U-2932): A1 (A1=0.0001 to <1)
CI50 growth inhibition (KARPAS-299): U (U=0.7 to <1)
CI50 inhibition (KARPAS-299): U (U=0.7 to <1)
Synergy Score growth inhibition (KARPAS-299): A2 (A2=1 to <3)
Synergy Score inhibition (KARPAS-299): A1 (A1=0.0001 to <1)
CI50 growth inhibition (Farage): U (U=0.7 to <1)
CI50 inhibition (Farage): T (T=0.5 to <0.7)
Synergy Score growth inhibition (Farage): A3 (A3=>3)
Synergy Score inhibition (Farage): A1 (A1=0.0001 to <1)
CI50 growth inhibition (NCI-H929): U (U=0.7 to <1)
CI50 inhibition (NCI-H929): U (U=0.7 to <1)
Synergy Score growth inhibition (NCI-H929): A3 (A3=>3)
Synergy Score inhibition (NCI-H929): A1 (A1=0.0001 to <1)
CI50 growth inhibition (WSU-NHL): T (T=0.5 to <0.7)
CI50 inhibition (WSU-NHL): S (S=0.01 to <0.5)
Synergy Score growth inhibition (WSU-NHL): A3 (A3=>3)
Synergy Score inhibition (WSU-NHL): A2 (A2=1 to <3)
CI50 growth inhibition (RPMI-8226): U (U=0.7 to <1)
CI50 inhibition (RPMI-8226): W (W=≥1)
Synergy Score growth inhibition (RPMI-8226): A3 (A3=>3)
Synergy Score inhibition (RPMI-8226): A2 (A2=1 to <3)
CI50 growth inhibition (HH): W (W=≥1)
CI50 inhibition (HH): T (T=0.5 to <0.7)
Synergy Score growth inhibition (HH): A3 (A3=>3)
Synergy Score inhibition (HH): A2 (A2=1 to <3)
CI50 growth inhibition (OCI-Ly7): S (S=0.01 to <0.5)
CI50 inhibition (OCI-Ly7): S (S=0.01 to <0.5)
Synergy Score growth inhibition (OCI-Ly7): A3 (A3=>3)
Synergy Score inhibition (OCI-Ly7): A2 (A2=1 to <3)
CI50 growth inhibition [1]: W (W=≥1)
CI50 inhibition (OMP-2): W (W=≥1)
Synergy Score growth inhibition (OMP-2): A2 (A2=1 to <3)
Synergy Score inhibition (OMP-2): A1 (A1=0.0001 to <1)
CI50 growth inhibition (OCI-Ly3): U (U=0.7 to <1)
CI50 inhibition (OCI-Ly3): W (W=≥1)
Synergy Score growth inhibition (OCI-Ly3): A2 (A2=1 to <3)
Synergy Score inhibition (OCI-Ly3): A1 (A1=0.0001 to <1)
CI50 growth inhibition (DOHH-2): T (T=0.5 to <0.7)
CI50 inhibition (DOHH-2): T (T=0.5 to <0.7)
Synergy Score growth inhibition (DOHH-2): A3 (A3=>3)
Synergy Score inhibition (DOHH-2): A2 (A2=1 to <3)
CI50 growth inhibition (Jeko-1): T (T=0.5 to <0.7)
CI50 inhibition (Jeko-1): U (U=0.7 to <1)
Synergy Score growth inhibition (Jeko-1): A3 (A3=>3)
Synergy Score inhibition (Jeko-1): A1 (A1=0.0001 to <1)
CI50 growth inhibition (TMD8): T (T=0.5 to <0.7)
CI50 inhibition (TMD8): T (T=0.5 to <0.7)
Synergy Score growth inhibition (TMD8): A3 (A3=>3)
Synergy Score inhibition (TMD8): A2 (A2=1 to <3)
CI50 growth inhibition (HBL-1): S (S=0.01 to <0.5)
CI50 inhibition (HBL-1): U (U=0.7 to <1)
Synergy Score growth inhibition (HBL-1): A3 (A3=>3)
Synergy Score inhibition (HBL-1): A1 (A1=0.0001 to <1)
CI50 growth inhibition (SU-DHL-10-epst): T (T=0.5 to <0.7)
CI50 inhibition (SU-DHL-10-epst): T (T=0.5 to <0.7)
Synergy Score growth inhibition (SU-DHL-10-epst): A3 (A3=>3)
Synergy Score inhibition (SU-DHL-10-epst): A2 (A2=1 to <3)
CI50 growth inhibition (RL): U (U=0.7 to <1)
CI50 inhibition (RL): W (W=≥1)
Synergy Score growth inhibition (RL): A2 (A2=1 to <3)
Synergy Score inhibition (RL): A1 (A1=0.0001 to <1)
CI50 growth inhibition (Mino): T (T=0.5 to <0.7)
CI50 inhibition (Mino): T (T=0.5 to <0.7)
Synergy Score growth inhibition (Mino): A3 (A3=>3)
Synergy Score inhibition (Mino): A2 (A2=1 to <3)
CI50 growth inhibition (SU-DHL-4-epst): U (U=0.7 to <1)
CI50 inhibition (SU-DHL-4-epst): W (W=≥1)
Synergy Score growth inhibition (SU-DHL-4-epst): A3 (A3=>3)
Synergy Score inhibition (SU-DHL-4-epst): A2 (A2=1 to <3)
CI50 growth inhibition (GRANTA-519): S (S=0.01 to <0.5)
CI50 inhibition (GRANTA-519): W (W=≥1)
Synergy Score growth inhibition (GRANTA-519): A3 (A3=>3)
Synergy Score inhibition (GRANTA-519): A1 (A1=0.0001 to <1)
CI50 growth inhibition (KARPAS-422): W (W=≥1)
CI50 inhibition (KARPAS-422): W (W=≥1)
Synergy Score growth inhibition (KARPAS-422): A1 (A1=0.0001 to <1)
Synergy Score inhibition (KARPAS-422): A1 (A1=0.0001 to <1)
